Results as given in US9758494B2, “N-(oxazol-2-yl)-aryl-carboxylic acid amides and use thereof as herbicides” (BAYER CROPSCIENCE AG, priority 2012, dated 2017).

Legend:
Type in all cases: in vivo
[1] = test system: Avena fatua; assay: Pre-emergence herbicidal action
Description: (§1) Seeds of monocotyledonous and dicotyledonous weed plants and crop plants are laid out in wood-fiber pots in sandy loam and covered with soil. The compounds according to the invention, formulated in the form of wettable powders (WP) or as emulsion concentrates (EC), are then applied to the surface of the soil cover in the form of an aqueous suspension or emulsion at a water application rate equating to 600 to 800 l/ha, with addition of 0.2% wetting agent. After the treatment, the pots are placed in a greenhouse and kept under good growth conditions for the test plants. The damage to the test plants is assessed visually after a test period of 3 weeks by comparison with untreated controls (herbicidal activity in percent (%): 100% activity=the plants have died, 0% activity=like control plants). Here, for example, compounds No. 1-163, 1-171, 1-172, 1-283, 1-284, 1-294, 1-295, 1-334, 10-001 and 11-343, at an application rate of 320 g/ha, have an activity of at least 80% against Veronica persica.
(§2) In the tables below, the properties of the compounds according to the invention are compared to those of the structurally most similar compounds known from WO 2012/028579 A1. These tests were carried out by the pre- and post-emergence method under the conditions mentioned under item 1 and item 2. Here, the herbicidal activity against various harmful plants and the damage of some important crop plants were compared at different dosages.

[2] = test system: Brassica napus (Oilseed Rape); assay: Post-emergence, damage of crop plants
Description: (§3) Seeds of monocotyledonous and dicotyledonous weed plants and crop plants are laid out in wood fiber pots in sandy loam, covered with soil and cultivated in a greenhouse under good growth conditions. 2 to 3 weeks after sowing, the test plants are treated at the one-leaf stage. The compounds according to the invention, formulated in the form of wettable powders (WP) or as emulsion concentrates (EC), are then sprayed onto the green parts of the plants in the form of an aqueous suspension or emulsion at a water application rate equating to 600 to 800 l/ha, with addition of 0.2% wetting agent. After the test plants have been left to stand in the greenhouse under optimal growth conditions for about 3 weeks, the action of the preparations is assessed visually in comparison to untreated controls (herbicidal action in percent (%): 100% activity=the plants have died, 0% activity=like control plants). Here, for example, compounds No. 1-163, 1-171, 1-172, 1-173, 1-254, 1-283, 1-284, 1-293, 1-294 and 1-334, at an application rate of 80 g/ha, have an activity of at least 80% against Abutilon theophrasti and Amaranthus retroflexus.
as §2

[3] = test system: Matricaria inodora; assay: Pre-emergence herbicidal action; conditions: Dosage 320/ha (Table C)
Description: as §1, §2

[4] = test system: Amaranthus retroflexus; assay: Pre-emergence herbicidal action; conditions: Dosage 320/ha (Table C)
Description: as §1, §2

[5] = test system: Abutilon theophrasti; assay: Pre-emergence herbicidal action; conditions: Dosage 320/ha (Table C)
Description: as §1, §2

[6] = test system: Echinochloa crus galli; assay: Pre-emergence herbicidal action; conditions: Dosage 320/ha (Table C)
Description: as §1, §2

[7] = test system: Triticum aestivum (Wheat); assay: Post-emergence, damage of crop plants
Description: as §3, §2

[8] = test system: Oryza sativa (Rice); assay: Post-emergence, damage of crop plants; conditions: for damage of crop plants, Crop plant ORYZA: Dosage 80/ha (Table Q)
Description: as §3, §2

[9] = test system: Brassica napus (Oilseed Rape); assay: Pre-emergence, damage of crop plants
Description: as §1, §2

[10] = test system: Triticum aestivum (Wheat); assay: Pre-emergence, damage of crop plants
Description: as §1, §2

[11] = test system: Oryza sativa (Rice); assay: Pre-emergence, damage of crop plants
Description: as §1, §2

[12] = test system: Cyperus serotinus; assay: Post-emergence herbicidal action; conditions: Dosage 80/ha (Table Q)
Description: as §3, §2

[13] = test system: Lolium multiflorum; assay: Post-emergence herbicidal action; conditions: for herbicidal activity, Harmful plants LOLMU: Dosage 80/ha (Table Q)
Description: as §3, §2

[14] = test system: Lolium multiflorum; assay: Pre-emergence herbicidal action; conditions: Dosage 320/ha (Table F)
Description: as §1, §2

[15] = test system: Polygonum convolvulus; assay: Pre-emergence herbicidal action; conditions: Dosage 320/ha (Table F)
Description: as §1, §2

[16] = test system: Setaria viridis; assay: Post-emergence herbicidal action; conditions: Dosage 20/ha (Table R)
Description: as §3, §2

## CCS(=O)(=O)c1ccc(C(=O)Nc2nnnn2C)c(Cl)c1C1=NOC(CC#N)C1 (stereo not drawn) [WO 2012/028579, No. 4-268]
[1]; 20 g/ha (Table K)
  Herbicidal activity against AVEFA: 0%
[1]; 80 g/ha (Table K)
  Herbicidal activity against AVEFA: 0%
[2]; 5 g/ha (Table W)
  Damage of BRSNW: 80%
[2]; 20 g/ha (Table W)
  Damage of BRSNW: 100%

## Cc1c(C(=O)Nc2nnnn2C)ccc(S(C)(=O)=O)c1S(C)(=O)=O [WO 2012/028579, No. 1-188]
[3]
  herbicidal activity against harmful plants MATIN: 40%
[4]
  herbicidal activity against harmful plants AMARE: 40%
[5]
  herbicidal activity against harmful plants ABUTH: 0%
[6]
  herbicidal activity against harmful plants ECHCG: 0%
[2]; Dosage 20/ha (Table O)
  damage of crop plants BRSNW: 100%
[7]; Dosage 20/ha (Table O)
  damage of crop plants TRZAS: 40%
[8]; Dosage 20/ha (Table O)
  damage of crop plants ORYZA: 20%

## CSc1c(C(F)(F)F)ccc(C(=O)Nc2ncco2)c1C [1-171]
[9]; Dosage 80/ha (Table A)
  damage of crop plants BRSNW: 30%
[9]; Dosage 80/ha (Table B)
  damage of crop plants BRSNW: 30%
[10]; Dosage 80/ha (Table A)
  damage of crop plants TRZAS: 0%
[10]; Dosage 80/ha (Table B)
  damage of crop plants TRZAS: 0%
[11]; Dosage 80/ha (Table A)
  damage of crop plants ORYZA: 0%
[11]; Dosage 80/ha (Table B)
  damage of crop plants ORYZA: 0%
[2]; Dosage 80/ha (Table M)
  damage of crop plants BRSNW: 0%
[2]; Dosage 80/ha (Table N)
  damage of crop plants BRSNW: 0%
[7]; Dosage 80/ha (Table M)
  damage of crop plants TRZAS: 0%
[7]; Dosage 80/ha (Table N)
  damage of crop plants TRZAS: 0%
[8]; Dosage 80/ha (Table M)
  damage of crop plants ORYZA: 0%
[8]; Dosage 80/ha (Table N)
  damage of crop plants ORYZA: 0%

## CSc1c(C(F)(F)F)ccc(C(=O)Nc2nnnn2C)c1C [WO 2012/028579, No. 4-135]
[9]; Dosage 80/ha (Table A)
  damage of crop plants BRSNW: 80%
[10]; Dosage 80/ha (Table A)
  damage of crop plants TRZAS: 60%
[11]; Dosage 80/ha (Table A)
  damage of crop plants ORYZA: 60%
[2]; Dosage 80/ha (Table M)
  damage of crop plants BRSNW: 100%
[7]; Dosage 80/ha (Table M)
  damage of crop plants TRZAS: 100%
[8]; Dosage 80/ha (Table M)
  damage of crop plants ORYZA: 100%

## Cn1nnnc1NC(=O)c1ccc(S(C)(=O)=O)c([S+](C)[O-])c1Cl (stereo not drawn) [WO 2012/028579, No. 4-293]
[12]
  herbicidal activity, Harmful plants CYPES: 40%
[13]
  herbicidal activity, Harmful plants LOLMU: 40%
[14]
  herbicidal activity against harmful plants LOLMU: 20%
[15]
  herbicidal activity against harmful plants POLCO: 20%
[8]
  damage of crop plants, Crop plant ORYZA: 40%

## CCS(=O)(=O)c1ccc(C(=O)Nc2nnnn2-c2ccccc2)c(Cl)c1C1=NOC(CC#N)C1 (stereo not drawn) [WO 2012/028579, No. 6-268]
[1]; 20 g/ha (Table L)
  Herbicidal activity against AVEFA: 0%
[1]; 80 g/ha (Table L)
  Herbicidal activity against AVEFA: 0%
[2]; 20 g/ha (Table X)
  Damage of BRSNW: 20%
[2]; 80 g/ha (Table X)
  Damage of BRSNW: 60%

## C[S+]([O-])c1c(S(C)(=O)=O)ccc(C(=O)Nc2ncco2)c1Cl (stereo not drawn) [1-284]
[16]
  herbicidal activity against harmful plants SETVI: 90%
[12]
  herbicidal activity, Harmful plants CYPES: 60%
[13]; Dosage 20/ha (Table R)
  herbicidal activity against harmful plants LOLMU: 60%
[13]
  herbicidal activity, Harmful plants LOLMU: 70%
[14]
  herbicidal activity against harmful plants LOLMU: 100%
[15]
  herbicidal activity against harmful plants POLCO: 70%
[8]
  damage of crop plants, Crop plant ORYZA: 20%
